Laboratory results from US9873709B2 (priority 2013, dated 2018).

Each compound was assayed on JAK1-dependent STAT6 phosphorylation downstream of IL-13 stimulation in TF-1 human erythroleukemia cells (assay: cells). Conditions: TF-1, read-out: IL-13-pSTAT6 IC50.

IC50 [nM]	Structure (SMILES)
37.2	CNC(=O)C1CN(C(=O)c2ccc(Nc3nc4c(C5=CCN(C(=O)CCC(F)(F)F)CC5)cccn4n3)cc2)CCN1C (stereo not shown) [Example 2-275, N,1-dimethyl-4-[4-[[8-[1-(4,4,4-trifluorobutanoyl)-3,6-dihydro-2H-pyridin-4-yl]-[1,2,4]triazolo[1,5-a]pyridin-2-yl]amino]benzoyl] piperazine-2-carboxamide]
34.7	O=C(NCC1CNCCO1)c1ccc(Nc2nc3c(N4CCC(O)(c5ccc(Cl)cc5)CC4)cccn3n2)cc1 (stereo not shown) [Example 1-188, 4-[[8-[4-(4-chlorophenyl)-4-hydroxy-1-piperidyl]-[1,2,4]triazolo[1,5-a]pyridin-2-yl]amino]-N-(morpholin-2-ylmethyl)benzamide]
208	NCC1CCN(C(=O)c2ccc(Nc3nc4c(C5=CCN(C(=O)CCC(F)(F)F)CC5)cccn4n3)cc2)CC1 [Example 2-446, 1-[4-[2-[4-[4-(aminomethyl)piperidine-1-carbonyl]anilino]-[1,2,4]triazolo[1,5-a]pyridin-8-yl]-3,6-dihydro-2H-pyridin-1-yl]-4,4,4-trifluoro-butan-1-one]
1800	CC(=O)N1CC=C(c2cccn3nc(Nc4ccc(C(=O)N(C)C5CCN(C)CC5)cc4)nc23)CC1 [Example 2-344, 4-[[8-(1-acetyl-3,6-dihydro-2H-pyridin-4-yl)-[1,2,4]triazolo[1,5-a]pyridin-2-yl]amino]-N-methyl-N-(1-methyI-4-piperidyl)benzamide]
22.6	CCOC(=O)N1CC=C(c2cccn3nc(Nc4ccc(C(=O)NCCC5CCCN5C)cc4)nc23)CC1 (stereo not shown) [Example 2-111, ethyl 4-[2-[4-[2-(1-methylpyrrolidin-2-yl)ethylcarbamoyl]anilino]-[1,2,4]triazolo[1,5-a]pyridin-8-yl]-3,6-dihydro-2H-pyridine-1-carboxylate]
6.8	CCCN1CCC(N(C(=O)c2ccc(Nc3nc4c(C5=CCN(C(=O)CCC(F)(F)F)CC5)cccn4n3)cc2)C2CC2)CC1 [Example 2-400, N-cyclopropyl-N-(1-propyl-4-piperidyl)-4-[[8-[1-(4,4,4-trifluorobutanoyl)-3,6-dihydro-2H-pyridin-4-yl]-[1,2,4]triazolo[1,5-a]pyridin-2-yl]amino]benzamide]
13.7	CN(C)C1CCN(C(=O)c2ccc(Nc3nc4c(C5=CCN(C(=O)CCC(F)(F)F)CC5)cccn4n3)cc2)CC1 [Example 2-97, 1-[4-[2-[4-[4-(dimethylamino)piperidine-1-carbonyl]anilino]-[1,2,4]triazolo[1,5-a]pyridin-8-yl]-3,6-dihydro-2H-pyridin-1-yl]-4,4,4-trifluoro-butan-1-one]
4.7	CC1CN(C2CCN(C(=O)c3ccc(Nc4nc5c(C6=CCN(C(=O)CCC(F)(F)F)CC6)cccn5n4)cc3)CC2)CC(C)O1 (stereo not shown) [Example 2-157, 1-[4-[2-[4-[4-(2,6-dimethylmorpholin-4-yl)piperidine-1-carbonyl]anilino]-[1,2,4]triazolo[1,5-a]pyridin-8-yl]-3,6-dihydro-2H-pyridin-1-yl]-4,4,4-trifluoro-butan-1-one]
16.2	CNC(=O)C1CN(C(=O)c2ccc(Nc3nc4c(C5=CCN(C(=O)CCC(F)(F)F)CC5)cccn4n3)cc2)CCN1Cc1ccccc1 (stereo not shown) [Example 2-342, 1-benzyl-N-methyl-4-[4-[[8-[1-(4,4,4-trifluorobutanoyl)-3,6-dihydro-2H-pyridin-4-yl]-[1,2,4]triazolo[1,5-a]pyridin-2-yl]amino]benzoyl] piperazine-2-carboxamide]
70.2	CN(C)c1ccc(C2CCCN(C(=O)c3ccc(Nc4nc5c(C6=CCN(C(=O)CCC(F)(F)F)CC6)cccn5n4)cc3)C2)nc1 (stereo not shown) [Example 2-51, 1-[4-[2-[4-[3-[5-(dimethylamino)-2-pyridyl]piperidine-1-carbonyl]anilino]-[1,2,4]triazolo[1,5-a]pyridin-8-yl]-3,6-dihydro-2H-pyridin-1-yl]-4,4,4-trifluoro-butan-1-one]
67.9	CN(Cc1ccccc1)C1CCCN(C(=O)c2ccc(Nc3nc4c(C5=CCN(C(=O)CCC(F)(F)F)CC5)cccn4n3)cc2)C1 (stereo not shown) [Example 2-472, 1-[4-[2-[4-[3-[benzyl(methyl)amino]piperidine-1-carbonyl]anilino]-[1,2,4]triazolo[1,5-a]pyridin-8-yl]-3,6-dihydro-2H-pyridin-1-yl]-4,4,4-trifluoro-butan-1-one]
7.4	O=C(CCC(F)(F)F)N1CC=C(c2cccn3nc(Nc4ccc(C(=O)N5CCCC(N6CCCCCC6)C5)cc4)nc23)CC1 (stereo not shown) [Example 2-403, 1-[4-[2-[4-[3-(azepan-1-yl)piperidine-1-carbonyl]anilino]-[1,2,4]triazolo[1,5-a]pyridin-8-yl]-3,6-dihydro-2H-pyridin-1-yl]-4,4,4-trifluoro-butan-1-one]
54	CN1CCC(N(C)C(=O)c2ccc(Nc3nc4c(C5=CCN(C(=O)OC6COC6)CC5)cccn4n3)cc2)CC1 [Example 2-283, oxetan-3-yl-4-[2-[4-[methyl-(1-methyl-4-piperidyl)carbamoyl]anilino]-[1,2,4]triazolo[1,5-a]pyridin-8-yl]-3,6-dihydro-2H-pyridine-1-carboxylate]
15.4	CCOC(=O)N1CC=C(c2cccn3nc(Nc4ccc(C(=O)NCc5cccnc5C)cc4)nc23)CC1 [Example 2-177, ethyl 4-[2-[4-[(2-methyl-3-pyridyl)methylcarbamoyl]anilino]-[1,2,4]triazolo[1,5-a]pyridin-8-yl]-3,6-dihydro-2H-pyridine-1-carboxylate]
9	O=C(CCC(F)(F)F)N1CC=C(c2cccn3nc(Nc4ccc(C(=O)N5CCCC6(CCCCN6)C5)cc4)nc23)CC1 (stereo not shown) [Example 2-383, 1-[4-[2-[4-(1,8-diazaspiro[5.5]undecane-8-carbonyl)anilino]-[1,2,4]triazolo[1,5-a]pyridin-8-yl]-3,6-dihydro-2H-pyridin-1-yl]-4,4,4-trifluoro-butan-1-one]
12.2	CN1CCCC12CN(C(=O)c1ccc(Nc3nc4c(N5CCC(O)(c6ccc(Cl)cc6)CC5)cccn4n3)cc1)C2 [Example 1-60, [4-[[8-[4-(4-chlorophenyl)-4-hydroxy-1-piperidyl]-[1,2,4]triazolo[1,5-a]pyridin-2-yl]amino]phenyl]-(5-methyl-2,5-diazaspiro[3.4]octan-2-yl)methanone]
36.1	O=C(c1ccc(Nc2nc3c(N4CCC(O)(c5ccc(Cl)cc5)CC4)cccn3n2)cc1)N1C[C@@H]2CCN[C@@H]2C1 [Example 1-234]
9.4	O=C(NCCN1CCOCC1)c1ccc(Nc2nc3c(C4=CCN(C(=O)CCC(F)(F)F)CC4)cccn3n2)cc1 [Example 2-465, N-(2-morpholinoethyl)-4-[[8-[1-(4,4,4-trifluorobutanoyl)-3,6-dihydro-2H-pyridin-4-yl]-[1,2,4]triazolo[1,5-a]pyridin-2-yl]amino]benzamide]
342	O=C(c1ccc(Nc2nc3c(N4CCC(O)(c5ccc(Cl)cc5)CC4)cccn3n2)cc1)N1CC2(CNC2)C1 [Example 1-203, [4-[[8-[4-(4-chlorophenyl)-4-hydroxy-1-piperidyl]-[1,2,4]triazolo[1,5-a]pyridin-2-yl]amino]phenyl]-(2,6-diazaspiro[3.3]heptan-2-yl)methanone]
238	O=C(CCC(F)(F)F)N1CC=C(c2cccn3nc(Nc4ccc(C(=O)N5CCCC56CCNCC6)cc4)nc23)CC1 [Example 2-258, 1-[4-[2-[4-(1,8-diazaspiro[4.5]decane-1-carbonyl)anilino]-[1,2,4]triazolo[1,5-a]pyridin-8-yl]-3,6-dihydro-2H-pyridin-1-yl]-4,4,4-trifluoro-butan-1-one]
462	O=C(NCCN1CCNCC1)c1ccc(Nc2nc3c(N4CCC(O)(c5ccc(Cl)cc5)CC4)cccn3n2)cc1 [Example 1-187]
34	O=C(c1ccc(Nc2nc3c(N4CCC(O)(c5ccc(Cl)cc5)CC4)cccn3n2)cc1)N1CCN(CCn2ccnc2)CC1 [Example 1-116, [4-[[8-[4-(4-chlorophenyl)-4-hydroxy-1-piperidyl]-[1,2,4]triazolo[1,5-a]pyridin-2-yl]amino]phenyl]-[4-(2-imidazol-1-ylethyl)piperazin-1-yl]methanone]
13.5	Cc1ccc(C2CCN(C(=O)c3ccc(Nc4nc5c(C6=CCN(C(=O)CCC(F)(F)F)CC6)cccn5n4)cc3)CC2)nc1 [Example 2-215, 4,4,4-trifluoro-1-[4-[2-[4-[4-(5-methyl-2-pyridyl)piperidine-1-carbonyl]anilino]-[1,2,4]triazolo[1,5-a]pyridin-8-yl]-3,6-dihydro-2H-pyridin-1-yl]butan-1-one]
38.5	CCOC(=O)N1CC=C(c2cccn3nc(Nc4ccc(C(=O)NCc5cc(C)ccn5)cc4)nc23)CC1 [Example 2-124, ethyl 4-[2-[4-[(4-methyl-2-pyridyl)methylcarbamoyl]anilino]-[1,2,4]triazolo[1,5-a]pyridin-8-yl]-3,6-dihydro-2H-pyridine-1-carboxylate]
719	CN1CCC(N(C)C(=O)c2ccc(Nc3nc4c(C5=CCN(C(=O)[C@H]6CC[C@H](C#N)CC6)CC5)cccn4n3)cc2)CC1 [Example 2-350, 4-[[8-[1-(4-cyanocyclohexanecarbonyl)-3,6-dihydro-2H-pyridin-4-yl]-[1,2,4]triazolo[1,5-a]pyridin-2-yl]amino]-N-methyl-N-(1-methyl-4-piperidyl)benzamide]
5.4	O=C(CCC(F)(F)F)N1CC=C(c2cccn3nc(Nc4ccc(C(=O)N5CCCC5Cc5ccccn5)cc4)nc23)CC1 (stereo not shown) [Example 2-396, 4,4,4-trifluoro-1-[4-[2-[4-[2-(2-pyridylmethyl)pyrrolidine-1-carbonyl]anilino]-[1,2,4]triazolo[1,5-a]pyridin-8-yl]-3,6-dihydro-2H-pyridin-1-yl]butan-1-one]
39.3	O=C(CCC(F)(F)F)N1CC=C(c2cccn3nc(Nc4ccc(C(=O)N5CCCN(c6ccncc6)CC5)cc4)nc23)CC1 [Example 2-278, 4,4,4-trifluoro-1-[4-[2-[4-[4-(4-pyridyl)-1,4-diazepane-1-carbonyl]anilino]-[1,2,4]triazolo[1,5-a]pyridin-8-yl]-3,6-dihydro-2H-pyridin-1-yl]butan-1-one]
42.9	CCCC(=O)N1CC=C(c2cccn3nc(Nc4ccc(C(=O)N(C)C5CCN(C)CC5)cc4)nc23)CC1 [Example 2-289, 4-[[8-(1-butanoyl-3,6-dihydro-2H-pyridin-4-yl)-[1,2,4]triazolo[1,5-a]pyridin-2-yl]amino]-N-methyl-N-(1-methyl-4-piperidyl)benzamide]
